Reference: US20230235378A1, “LZHEIMER'S DISEASE-SPECIFIC ALTERATIONS OF PROTEIN KINASE C EPSILON (PKC-EPSILON PROTEIN LEVELS” (WEST VIRGINIA UNIVERSITY BOARD OF GOVERNORS ON BEHALF OF …, priority 2010, published 2023)
pEC50: −log10 of the molar value. Blank lines part the entries; values can stand above or below the compound they belong to.

What was measured:
purified PKC = biological target: T1, purified PKC (Homo sapiens, UniProt Q02156); test: PKC isozyme specificity: purified PKC preincubated with compound, activity measured radiometrically; assay type: biochemical; details: for concentration needed to activate PKC, relative to BR-101 (DCP-LA): compared with BR-101 (DCP-LA); for activation of purified PKC: used as methyl esters
T1 construct: purchased Calbiochem
T1 sequence (Q02156 1-737): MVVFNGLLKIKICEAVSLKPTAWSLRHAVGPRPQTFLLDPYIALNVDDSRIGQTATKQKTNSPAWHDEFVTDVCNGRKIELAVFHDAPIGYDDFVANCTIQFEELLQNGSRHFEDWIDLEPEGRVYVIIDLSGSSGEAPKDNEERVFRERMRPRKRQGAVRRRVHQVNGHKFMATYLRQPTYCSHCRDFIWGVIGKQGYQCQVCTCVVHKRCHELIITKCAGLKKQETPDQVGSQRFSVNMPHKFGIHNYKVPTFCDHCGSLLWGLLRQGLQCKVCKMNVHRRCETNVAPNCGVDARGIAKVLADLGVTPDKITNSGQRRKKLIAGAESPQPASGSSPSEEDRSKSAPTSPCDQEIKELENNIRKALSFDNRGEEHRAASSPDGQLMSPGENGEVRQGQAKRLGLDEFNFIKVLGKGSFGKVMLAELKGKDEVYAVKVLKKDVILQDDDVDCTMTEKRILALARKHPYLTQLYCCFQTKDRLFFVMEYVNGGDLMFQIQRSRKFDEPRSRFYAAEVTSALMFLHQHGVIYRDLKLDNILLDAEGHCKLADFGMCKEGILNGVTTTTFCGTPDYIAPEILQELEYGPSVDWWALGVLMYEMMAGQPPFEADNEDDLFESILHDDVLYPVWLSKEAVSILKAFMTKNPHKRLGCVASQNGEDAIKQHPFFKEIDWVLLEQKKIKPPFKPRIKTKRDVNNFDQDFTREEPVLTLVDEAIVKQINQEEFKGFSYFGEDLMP
Experimental: (§1) Protein Kinase C Assay. Rat hippocampal cells were cultured and scraped in 0.2 ml homogenization buffer (20 mM Tris-HCl, pH 7.4, 50 mM NaF, 1 μg/ml leupeptin, and 0.1 mM PMSF) and homogenized by sonication in a Marsonix micro-probe sonicator (5 sec, 10 W). To measure PKC, 10 μl of cell homogenate or purified PKC isozyme (purchased from Calbiochem) was incubated for 15 min at 37° C. in the presence of 10 μM histones, 4.89 mM CaCl2, 1.2 μg/μl phosphatidyl-L-serine, 0.18 μg/μl 1,2-dioctanoyl-sn-glycerol, 10 mM MgCl2, 20 mM HEPES (pH 7.4), 0.8 mM EDTA, 4 mM EGTA, 4% glycerol, 8 μg/ml aprotinin, 8 μg/ml leupeptin, and 2 mM benzamidine. 0.5 μCi [γ-32P]ATP was added and 32P-phosphoprotein formation was measured by adsorption onto phosphocellulose as described previously. Nelson and Alkon, J. Neurochemistry. 1995; 65: 2350-57. For measurements of activation by BR-101 (DCP-LA) and similar compounds, PKC activity was measured in the absence of diacylglycerol and phosphatidylserine, as described by Kanno et al., and PKC δ, ε, η, and were measured in the absence of added EGTA and CaCl2, as described by Kanno et al., J. Lipid Res. 2006; 47: 1146-50. Low concentrations of Ca2+ are used because high Ca2+ interacts with the PKC phosphatidylserine binding site and prevents activation. For measurements of bryostatin activation, 1,2-diacylglycerol was omitted unless otherwise stated.
To determine their PKC isozyme specificity, the new compounds were preincubated with purified PKC for five minutes and the PKC activity was measured radiometrically.

PKC [1] = test: PKC activity in cultured rat hippocampal H19-7/IGF-IR cells; assay type: cell-based; details: 8 h; data not shown
Experimental: Cell Culture. Rat hippocampal H19-7/IGF-IR cells (ATCC, Manassas, Va.) were plated onto poly-L-lysine coated plates and grown at 35° C. in DMEM/10% FCS for several days until about 50% coverage was obtained. The cells were then induced to differentiate into a neuronal phenotype by replacing the medium with 5 ml N2 medium containing 10 ng/ml basic fibroblast growth factor at 39° C. and grown in T-75 flasks at 37° C. Human SH-SY5Y neuroblastoma cells (ATCC) were cultured in 45% F 12K/45% MEM/10% FCS. Mouse N2A neuroblastoma cells were cultured in DMEM/10% FCS without glutamine. Rat hippocampal neurons from 18-day-old embryonic
as §1
PKC activators that bind to the diacylglycerol binding site, including bryostatin, gnidimacrin, and phorbol esters, produce a transient activation of PKC activity, followed by a prolonged downregulation. Nelson et al., Trends in Biochem. Sci. 2009; 34: 136-45. This was confirmed in cultured rat hippocampal cells. Incubation of rat 1119-7/IGF-IR cells with (0.04 nM and 0.2 nM) bryostatin produced a 2-fold activation that lasted 30 min, followed by a 20% downregulation that returned to baseline by 24 h (data not shown). […] This sustained activation was only observed in primary neurons.

PKC [2] = details: read-out: EC50 (affinity for PKC); cited from earlier work
Aß = details: 1 μM, 8 h, cultured COS cells; cited from earlier work
PKC-ε = PKC-ε level in skin fibroblasts treated with oligomeric Aß1-42 (western blot); assay type: cell-based, human
Experimental: Immunoblot Analysis: Protein lysates (20 μg of protein each) were boiled in 2× Laemmli buffer for 10 min and separated using a 4-20% gradient Tris-Glycine gels. Separated proteins were transferred to nitrocellulose membrane and the membrane was blocked in BSA at room temperature (RT) for 15 min and incubated with 1:2000 dilution anti-PKC-ε rabbit polyclonal antibody (Santa Cruz Biotechnology, Santa Cruz, Calif.; Cat No: sc-214), and 1:5000 dilution anti-ß-tubulin, class III rabbit monoclonal antibody (Millipore Corporation, Billerica Mass., Cat No: 04-1049) for 1 hr at RT. After the incubation, the membrane fractions were washed 3× with standard western blot washing buffer and further incubated with alkaline phosphatase conjugated secondary antibody (Jackson Immunoresearch Laboratories, USA) at 1:10000 dilution for 45 min. The membrane fractions were finally washed 3× with standard western blot washing buffer and developed using the 1-step NBT-BCIP substrate (Thermo Scientific, Rockford, Ill.). Signal intensities of the images were recorded in the ImageQuant RT-ECL (GE Life Sciences, Piscataway, N.J.) and densitometric quantification was performed using the IMAL software (Blanchette Rockefeller Neurosciences Institute, Morgantown, W. Va.). Intensities quantified in this way, for PKC-ε were normalized against ß-tubulin for each lane.
Preparation of Soluble Oligomeric Aß: Oligomeric Aß was prepared following the method described by Noguchi et al., (2009). Aß generated by this method was reported to be highly neurotoxic, 10-15 nm spherical Aß assemblies termed as amylospheroids (ASPDs). […]
Treatment of skin fibroblasts with oligomeric Aß1-42: Skin fibroblasts both from AD and AC cases were cultured for 7 days to 100% confluence. […] The resulting band intensities for PKC-ε were quantified using ImageQuant RT-ECL (GE Life Sciences, USA) and densitometric analysis was performed using the IMAL software (Blanchette Rockefeller Neurosciences Institute, Morgantown, W. Va.).

Compound: CCCCCC1OC1C/C=C\CCCCCCCC(=O)OC (stereo in doubt) [BR-117, vernolic acid methyl ester]
effect on PKC (purified PKC): little or no effect

concentration needed to activate PKC, relative to BR-101 (DCP-LA) (purified PKC): approx. 100 times lower
Compound: CCC1CC1CC1CC1CC1CC1CC1CC1CC1CC1CCCC(=O)OC (stereo not drawn) [BR-114]
activation of purified PKC (purified PKC): activated purified PKC to a similar extent

Compound: CCCCCC1CC1CC1CC1CC1CC1CC1CC1CCCC(=O)OC (stereo not drawn) [BR-115, methyl 4-(2-((2-((2-((pentylcyclopropyl)methyl)cyclopropyl)methyl)cyclopropyl)methyl)cyclopropyl)butanoate methyl ester]
concentration needed to activate PKC, relative to BR-101 (DCP-LA) (purified PKC): approx. 100 times lower
activation of purified PKC (purified PKC): activated purified PKC to a similar extent

Compound: CCCCCCCCCCCCCC(=O)O[C@@H]1[C@@H](C)[C@@]2(O)[C@@H](C=C(CO)C[C@]3(O)C(=O)C(C)=C[C@@H]23)[C@@H]2C(C)(C)[C@]12OC(C)=O [PMA, phorbol 12-myristate 13-acetate]
downregulation of PKC activity (PKC [1]): strongly downregulated

Compound: CCCC(=O)O[C@@H]1[C@@H](C)[C@@]2(O)[C@@H](C=C(CO)C[C@]3(O)C(=O)C(C)=C[C@@H]23)[C@@H]2C(C)(C)[C@]12OC(=O)CCC [PdBu, Phorbol-12,13-dibutyrate]
change in Aß (Aß): increase in Aß

effect on PKC (purified PKC): little or no effect
Compound: Linoleic alcohol cyclopropanated [BR-105]

effect on PKC (purified PKC): little or no effect
Compound: Linolenyl alcohol cyclpropanated [BR-104]

Compound: Soluble Aß oligomer: soluble >100 kDa oligomers (amylospheroids) prepared from synthetic Aß1-42 by the method of Noguchi et al.
PKC-ε in age-matched control (AC) skin fibroblasts (PKC-ε; 500 nM, 24 hrs, five AC cases): decreases
PKC-ε in AD skin fibroblasts (PKC-ε; 500 nM, 24 hrs, five AD cases): did not show decrease in expression
AC-AD ratio of normalized PKC-ε in treated cells (PKC-ε; untreated cells 1.4): ~1

concentrations at which PKC was inhibited (purified PKC): above 1 μM
Compound: Vernolic acid cyclopropanated methyl ester [BR-109]

effect on PKC (purified PKC): little or no effect
Compound: epoxystearic acid [BR-116]
